These results are taken from patent US20240285670A1, “THERAPEUTIC TREATMENT OF TUMORS BY BLOCKING THE HEME SYNTHESIS-EXPORT AXIS” (Università degli Studi di Torino, priority 2021, published 2024).

The subject of one data set is ALAS1. Briefly: qRT-PCR analysis of ALAS1 expression in C80 cells. It counts as cell-based, human. The note with it: FLVCR1a-silenced vs scramble shRNA C80 cells. As for the experimental part:
(A) Heme content in Caco2 cells treated with 5 mM 5-ALA (black bars and white bars) or with 5 mM 5-ALA+0.5 mM SA (light grey outlined bars) for the indicated time points. […] Values are expressed as relative fluorescence intensity. Data represent mean±SEM, n=2. For statistical analyses, a two-way analysis of variance was used, followed by the Bonferroni correction for multiple group comparisons; **=p<0.01, ***=p<0.001. 5-ALA, 5-aminolevulinic acid; SA, succinylacetone. (B) Intracellular 5-ALA levels. […] Values are expressed as peak area/μg proteins. Data represent mean±SEM of n=4 wells pooled from two independent experiments. For statistical analyses, an unpaired Student's t-test was used; **=p<0.01. 5-ALA, 5-aminolevulinic acid. (C, D) Accumulation of ^13C2-5-ALA in cells incubated with U-^13C-glucose (C) or of ^13C3-5-ALA in cells incubated with U-^13C-glutamine (D) for the indicated time. […] Values are expressed as peak area/μg proteins. […] Transcript abundance, normalized to beta-actin mRNA expression, is expressed as a fold increase over a calibrator sample. […] Band intensities were measured by densitometry and normalized to vinculin expression. […]
RNA extraction and quantitative real-time PCR analyses were performed as described previously (Destefanis et al., 2019). […] Quantitative real-time PCR (qRT-PCR) was performed using the Universal Probe Library system (Roche, Basel, CH). […]
A general note: Real-time PCR tracks product formation cycle by cycle.

A further data set has as its system Caco2 cells. Briefly: Flow cytometric analysis of apoptosis in Caco2 cells. It is filed as cell-based, human. The note with it: FLVCR1a-silenced vs scramble shRNA, synchronized Caco2 cells. From the text: (A) Proliferation of Caco2 cells assessed by crystal violet staining at the indicated days; bar=1000 μm. […] Staining quantification is reported in the bar graph as percentage of crystal violet stained area. Data represent mean±SEM, n=4. For statistical analyses, a two-way analysis of variance was used, followed by the Bonferroni correction for multiple group comparisons; *=p<0.05, ***=p<0.001. (B) Caco2 cells viability the day of plating (day 0) and three days after plaiting (day 3). The measure is considered a readout of cell proliferation. […] Data represent mean±SEM, n=3 wells. For statistical analyses, a two-way analysis of variance was used, followed by the Bonferroni correction for multiple group comparisons; *=p<0.05, **=p<0.01. (C, D, E) Representative flow cytometric analyses of apoptosis in synchronized Caco2 (C), SKCO1 (D) and C80 (E) cells. […] Data represent mean±SEM, n=4 wells pooled from two independent experiments. For statistical analyses, an unpaired Student's t-test was used; *=p<0.05, **=p<0.01. […]
Stained cells were analyzed using a FACSCanto II cytofluorimeter and processed with BD FACSDIVA Software v8.1 (BD Biosciences, Milan, IT; http://www.bdbiosciences.com/instruments/software/facsdiva/index.jsp/ RRID:SCR_001456), acquiring at least 10,000 events per sample or 25,000 cells per sample for cell cycle experiments.

For “FLVCR1a shRNA: shRNA specifically down-regulating FLVCR1a without targeting FLVCR1b; pLKO.1 lentiviral clone TRCN0000059599, antisense SEQ ID No.: 2 (antisense TTGCTAATGATGCTGTACTGG; sense CCAGTACAGCATCATTAGCAA)”, in the data set with ALAS1, the “ALAS1 expression (qRT-PCR)” value was “reduced ALAS1 expression”. Moreover, in the data set on Caco2 cells, the basal apoptosis result is “higher extent of basal apoptosis”.
